From patent US5616556A, “Method of treating rheumatoid arthritis and osteoarthrosis using tetrahydro WS9326A” (Fujisawa Pharmaceutical Co., Ltd., priority 1990, dated 1997) come the findings set out here.

Data set [1] relates to rabbits. The following applies: rabbit, in vivo, 8 mg/kg.
Experimental: (§1) An injectable suspension containing the test compound and other ingredients mentioned below was administered into the knee joint of rabbits (6 males and 6 females) and dogs (3 males and 3 females) twice a week for 4 weeks. The dose was 8 mg/kg for rabbits and 12 mg/kg for dogs.
Data set [2] has as its system dogs. The following applies: dog, in vivo, 12 mg/kg.
Experimental: as §1

Starred links: 1 amine or outer side, 2 acyl side, 3 side chain; linkers in the order of their positions; H or OH if unused. Positions of bridges follow the written chain, without caps; N, C: chain ends. Non-standard residues stand in square brackets, D forms with d. Residues, ends and D or L forms follow the SMILES beside them. *: point of attachment. X2 = CN(/C(=C/c1ccc(O)cc1)C(=O)[*:2])[*:1]; aThr = C[C@H](O)[C@H](N)C(=O)O; X1 = CCCCCc1ccccc1CCC(=O)*

`CCCCCc1ccccc1CCC(=O)N[C@@H]1C(=O)N(C)/C(=C/c2ccc(O)cc2)C(=O)N[C@@H](CC(C)C)C(=O)N[C@H](Cc2ccccc2)C(=O)N[C@@H]([C@H](C)O)C(=O)N[C@@H](CC(N)=O)C(=O)N[C@@H](CO)C(=O)O[C@@H]1C` [tetrahydro-WS9326A] (X1-T[X2]L[dF][aThr]NS; ester 1-C): the death entry in data set [1] and in data set [2] was “caused death in neither rabbits nor dogs” each time.
